Counter-ions that a name gives are not always drawn. Like-named read-outs stand apart in the source and are kept apart here.
Columns and labels:
Assay type in all cases: biochemical
Human plasma [1] = test: Human plasma anticoagulation, prothrombin time (PT); details: concentration required to double the PT, linear extrapolation
Method: (§1) Dog plasma and rat plasma is obtained from conscious mixed-breed hounds (either sex, Hazelton-LRE, Kalamazoo, Mich., U.S.A.) or from anesthetized male Sprague-Dawley rats (Harlan Sprague-Dawley, Inc., Indianapolis, Ind., U.S.A.) by venipuncture into 3.8 percent citrate. Fibrinogen is prepared from in-date ACD human blood as the fraction I-2 according to previous procedures and specifications. […] Human fibrinogen is also purchased as 98 percent pure/plasmin free from American Diagnostica, Greenwich, Conn. Coagulation reagents ACTIN, Thromboplastin, and Human plasma are from Baxter Healthcare Corp., Dade Division, Miami, Fla. Bovine thrombin from Parke-Davis ([…], Mich.) is used for coagulation assays in plasma.
(§2) Coagulation assay procedures are as previously described. […] A CoAScreener coagulation instrument (American LABor, Inc.) is used for all coagulation assay measurements. The prothrombin time (PT) is measured by adding 0.05 mL saline and 0.05 mL Thromboplastin-C reagent to 0.05 mL test plasma. The activated partial thromboplastin time (APTT) is measured by incubation of 0.05 mL test plasma with 0.05 mL Actin reagent for 120 seconds followed by 0.05 mL CaCl2 (0.02M). The thrombin time (TT) is measured by adding 0.05 mL saline and 0.05 mL thrombin (10 NIH units/mL) to 0.05 mL test plasma. The compounds of Formula I are added to human or animal plasma over a wide range of concentrations to determine prolongation effects on the APTT, PT, and TT assays. Linear extrapolations are performed to estimate the concentrations required to double the clotting time for each assay.

Human plasmin = molecular target: T1, Human plasmin (Homo sapiens, UniProt P00747); test: Kass with plasmin, chromogenic substrate; details: substrate H-D-Val-Leu-Lys-p-nitroanilide
T1 construct: Human plasmin is purchased; purchased Boehringer Mannheim, Indianapolis, Ind
Method: (§3) By substantially following the procedures described above for human thrombin, and using other human blood coagulation system serine proteases and proteases of the fibrinolytic system with the appropriate chromogenic substrates, identified below, selectivity of the compounds of the present invention with respect to the coagulation factor serine proteases and with respect to the fibrinolytic system serine proteases are evaluated as well as their substantial lack of interference with serine proteases of the fibrinolytic system. Thrombin inhibitors preferably should spare fibrinolysis induced by urokinase, tissue plasminogen activator (t-PA) and streptokinase. This would be important to the therapeutic use of such agents as an adjunct to streptokinase, t-PA or urokinase thrombolytic therapy and to the use of such agents as an endogenous fibrinolysis-sparing (with respect to t-PA and urokinase) antithrombotic agent. In addition to the lack of interference with the amidase activity of the fibrinolytic proteases, such fibrinolytic system sparing can be studied by the use of human plasma clots and their lysis by the respective fibrinolytic plasminogen activators.
Human plasmin is purchased from Boehringer Mannheim, Indianapolis, Ind.; nt-PA is purchased as single chain activity reference from American Diagnostica, Greenwich, Conn. modified-t-PA6 (mt-PA6) is prepared at Eli Lilly and Company by procedure known in the art (See, Burck, et al., J. Biol. Chem., 265, […] (1990). Plasmin chromogenic substrate H-D-Val-Leu-Lys-p-nitroanilide and tissue plasminogen activator (t-PA) substrate H-D-Ile-Pro-Arg-p-nitroanilide are purchased from Kabi Vitrum, Stockholm, Sweden.

Human plasma [2] = test: Human plasma anticoagulation, thrombin time (TT); details: concentration required to double the thrombin time, linear extrapolation
Method: as §1, §2

Human Thrombin = Human Thrombin (Homo sapiens, UniProt P00734); test: Inhibition of amidase activity of thrombin (Kass)
factor Xa = molecular target: T2, factor Xa (Homo sapiens, UniProt P00742); test: Kass with factor Xa, chromogenic substrate; details: substrate N-Benzoyl-Ile-Glu-Gly-Arg-p-nitroanilide
T2 construct: Human factors X, Xa, IXa, XIa, and XIIa are purchased; purchased Enzyme Research Laboratories, South Bend, Ind
Method: as §3
(§4) Human factors X, Xa, IXa, XIa, and XIIa are purchased from Enzyme Research Laboratories, South Bend, Ind.; human urokinase from Leo Pharmaceuticals, Denmark; and recombinant activated Protein C (aPC) is prepared at Eli Lilly and Co. substantially according to U.S. Patent No. 4,981,952. Chromogenic substrates: N-Benzoyl-Ile-Glu-Gly-Arg-p-nitroanilide (for factor Xa); N-Cbz-D-Arg-Gly-Arg-p-nitroanilide (for factor IXa assay as the factor Xa substrate); Pyroglutamyl-Pro-Arg-p-nitroanilide (for Factor XIa and for aPC); H-D-Pro-Phe-Arg-p-nitroanilide (for factor XIIa); and Pyroglutamyl-Gly-Arg-p-nitroanilide (for urokinase); are purchased from KabiVitrum, Stockholm, Sweden, or from Midwest Biotech, Fishers, Ind. Bovine trypsin is purchased from Worthington Biochemicals, Freehold, N.J., and human plasma kallikrein from Kabi Vitrum, Stockholm, Sweden. Chromogenic substrate H-D-Pro-Phe-Arg-p-nitroanilide for plasma kallikrein is purchased from Kabi Vitrum, Stockholm, Sweden. N-Benzoyl-Phe-Val-Arg-p-nitroanilide, the substrate for human thrombin and for trypsin, is synthesized according to procedures described above for the compounds of the present invention, using known methods of peptide coupling from commercially available reactants or purchased from Midwest Biotech, Fishers, Ind.

Human plasma [3] = test: Human plasma anticoagulation, activated partial thromboplastin time (APTT); details: concentration required to double the APTT, linear extrapolation
Method: as §1, §2

Bovine trypsin = molecular target: T3, Bovine trypsin (Bos taurus, UniProt P00760); test: Kass with trypsin, chromogenic substrate; details: substrate N-Benzoyl-Phe-Val-Arg-p-nitroanilide
T3 construct: Bovine trypsin is purchased; purchased Worthington Biochemicals, Freehold, N.J
T3 sequence (P00760 24-246): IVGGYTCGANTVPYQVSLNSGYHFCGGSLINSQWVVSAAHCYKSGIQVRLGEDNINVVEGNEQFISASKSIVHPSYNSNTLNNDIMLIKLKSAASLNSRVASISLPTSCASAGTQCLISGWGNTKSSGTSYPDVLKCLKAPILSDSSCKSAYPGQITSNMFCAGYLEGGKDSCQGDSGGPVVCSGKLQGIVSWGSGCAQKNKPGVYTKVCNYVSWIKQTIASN
Method: as §3, §4

[4] = mean over a range of concentrations, […]

T1 sequence (P00747 97-810): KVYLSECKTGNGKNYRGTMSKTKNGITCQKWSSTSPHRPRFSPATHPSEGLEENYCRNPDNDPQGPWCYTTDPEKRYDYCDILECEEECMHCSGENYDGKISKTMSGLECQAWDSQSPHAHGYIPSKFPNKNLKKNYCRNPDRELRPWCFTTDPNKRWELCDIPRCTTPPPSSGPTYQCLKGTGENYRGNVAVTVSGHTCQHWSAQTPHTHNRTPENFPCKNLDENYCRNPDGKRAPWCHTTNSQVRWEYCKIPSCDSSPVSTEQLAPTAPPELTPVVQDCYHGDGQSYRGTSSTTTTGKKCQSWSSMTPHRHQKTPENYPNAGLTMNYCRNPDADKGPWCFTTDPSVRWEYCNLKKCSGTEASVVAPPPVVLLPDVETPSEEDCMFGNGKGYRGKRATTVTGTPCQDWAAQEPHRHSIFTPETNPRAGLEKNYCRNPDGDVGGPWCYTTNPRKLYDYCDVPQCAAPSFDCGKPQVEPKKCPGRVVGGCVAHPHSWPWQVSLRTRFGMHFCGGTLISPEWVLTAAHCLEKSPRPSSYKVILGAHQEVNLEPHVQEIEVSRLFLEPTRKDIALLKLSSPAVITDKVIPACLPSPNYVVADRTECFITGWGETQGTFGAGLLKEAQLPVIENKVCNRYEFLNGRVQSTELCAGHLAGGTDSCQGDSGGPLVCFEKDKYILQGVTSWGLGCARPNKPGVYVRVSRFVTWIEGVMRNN
T1 sequence (P00747 97-580 partner limits assumed): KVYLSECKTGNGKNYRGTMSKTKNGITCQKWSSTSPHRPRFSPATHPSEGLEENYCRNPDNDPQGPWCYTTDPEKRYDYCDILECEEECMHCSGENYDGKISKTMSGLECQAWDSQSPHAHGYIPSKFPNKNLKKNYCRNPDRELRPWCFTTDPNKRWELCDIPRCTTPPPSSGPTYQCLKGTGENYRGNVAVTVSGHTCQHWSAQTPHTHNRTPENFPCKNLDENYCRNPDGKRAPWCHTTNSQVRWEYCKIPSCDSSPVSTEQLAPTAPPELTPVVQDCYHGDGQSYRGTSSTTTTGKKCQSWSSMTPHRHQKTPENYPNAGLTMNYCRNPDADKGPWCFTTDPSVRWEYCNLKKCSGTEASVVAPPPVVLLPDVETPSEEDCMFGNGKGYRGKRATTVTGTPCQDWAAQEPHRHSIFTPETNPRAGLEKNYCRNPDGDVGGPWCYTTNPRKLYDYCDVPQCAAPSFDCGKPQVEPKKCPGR
T2 sequence (P00742 235-488 limits assumed): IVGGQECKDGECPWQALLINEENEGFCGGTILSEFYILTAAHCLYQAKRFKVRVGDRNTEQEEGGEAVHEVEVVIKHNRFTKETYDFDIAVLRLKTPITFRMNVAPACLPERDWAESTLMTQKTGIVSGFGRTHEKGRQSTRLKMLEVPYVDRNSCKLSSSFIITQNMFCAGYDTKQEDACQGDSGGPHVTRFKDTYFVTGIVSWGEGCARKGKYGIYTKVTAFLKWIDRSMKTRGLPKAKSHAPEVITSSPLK
T2 sequence (P00742 41-179 partner limits assumed): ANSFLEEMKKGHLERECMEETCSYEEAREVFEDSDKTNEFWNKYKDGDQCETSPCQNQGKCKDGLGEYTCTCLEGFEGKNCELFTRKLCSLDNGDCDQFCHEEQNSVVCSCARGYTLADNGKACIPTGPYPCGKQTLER

Compound | Human Plasma Anticoagulation 2× Clotting time PT (Human plasma [1]) | Kass Plasmin (Human plasmin) | Human Plasma Anticoagulation 2× Clotting time TT (Human plasma [2]) | Kass Human Thrombin (Human Thrombin) | Kass Xa (factor Xa) | Human Plasma Anticoagulation 2× Clotting time APTT (Human plasma [3]) | Kass Trypsin (Bovine trypsin) | Kass Human Thrombin (Human Thrombin; [4])
N=C(N)c1ccc(CNC(=O)[C@@H]2C[C@@H]3CCCC[C@@H]3N2C(=O)[C@@H]2NCC[C@@H]3CCCC[C@@H]32)cc1 (relative stereo) [Example 42, D-1-Piq-cis-Ohi-p-NHCH2 C6 H4 C(NH)NH2.2HCl] | 320 ng/mL | 0.12 × 10^6 (L/mole) | 20 ng/mL | 38 | 0.07 × 10^6 (L/mole) | 270 ng/mL | 43 × 10^6 (L/mole) | –
N=C(N)c1ccc(CNC(=O)[C@@H]2C[C@@H]3CCCC[C@@H]3N2C(=O)[C@H]2C[C@H]3CCCC[C@H]3CN2)cc1 (relative stereo) [Example 43, D-3-Piq-cis-Ohi-p-NHCH2 C6 H4 C(NH)NH2.2HCl] | 930 ng/mL | 0.30 × 10^6 (L/mole) | 280 ng/mL | – | 0.05 × 10^6 (L/mole) | 1,100 ng/mL | 100 × 10^6 (L/mole) | 1.4 × 10^6 (L/mole)
N=C(N)c1ccc(CNC(=O)[C@@H]2C[C@@H]3CCCC[C@@H]3N2C(=O)[C@@H](Cc2ccccc2)NCC(=O)O)cc1 (relative stereo) [Example 47, HOOCCH2 -D-Phe-cis-Ohi-p-NHCH2 C6 H4 C(NH)NH2.HCl] | 270 ng/mL | 0.18 × 10^6 (L/mole) | 12 ng/mL | 45 | 0.04 × 10^6 (L/mole) | 140 ng/mL | 82 × 10^6 (L/mole) | –
N=C(N)c1cccc(CNC(=O)[C@@H]2CCCN2C(=O)[C@@H]2NCC[C@@H]3CCCC[C@@H]32)c1 [Example 25, D-1-Piq-Pro-m-NHCH2 --C6 H4 C(=NH)NH2.HCl] | 40,400 ng/mL | < 0.001 × 10^6 (L/mole) | 1,430 ng/mL | – | < 0.001 × 10^6 (L/mole) | 34,600 ng/mL | 0.01 × 10^6 (L/mole) | 0.43 × 10^6 (L/mole)
CCS(=O)(=O)N[C@H](Cc1ccccc1)C(=O)N1CCC[C@H]1C(=O)NCCc1ccc(C(=N)N)cc1 [Example 26, EtSO2 -D-Phe-Pro-p-NHCH2 CH2 --C6 H4 C(=NH)NH2.HCl] | 750 ng/mL | 0.01 × 10^6 (L/mole) | 37 ng/mL | – | 0.01 × 10^6 (L/mole) | 870 ng/mL | 0.21 × 10^6 (L/mole) | 13 × 10^6 (L/mole)
N=C(N)c1ccc(CCCNC(=O)[C@@H]2CCCN2C(=O)[C@@H]2NCC[C@@H]3CCCC[C@@H]32)cc1 [Example 32, 1-Piq-Pro-p-NHCH2 CH2 CH2 --C6 H4 C(=NH)NH2.HCl] | 47,800 ng/mL | < 0.001 × 10^6 (L/mole) | 3,100 ng/mL | – | 0.03 × 10^6 (L/mole) | 28,500 ng/mL | 0.04 × 10^6 (L/mole) | 0.13 × 10^6 (L/mole)
CCS(=O)(=O)N[C@H](Cc1ccccc1)C(=O)N1CCC[C@H]1C(=O)NCc1ccc(NC(=N)N)cc1 [Example 34, EtSO2 -D-Phe-Pro-p-NHCH2 C6 H4 NHC(NH)NH2.HCl] | 5,500 ng/mL | 0.01 × 10^6 (L/mole) | 530 ng/mL | – | < 0.001 × 10^6 (L/mole) | 4,900 ng/mL | 0.49 × 10^6 (L/mole) | 0.65 × 10^6 (L/mole)
N=C(N)Nc1ccc(CNC(=O)[C@@H]2CCCN2C(=O)[C@@H]2NCC[C@@H]3CCCC[C@@H]32)cc1 [Example 38, D-1-Piq-Pro-p-NHCH2 C6 H4 NHC(NH)NH2.2HCl] | 11,100 ng/mL | < 0.001 × 10^6 (L/mole) | 540 ng/mL | – | < 0.001 × 10^6 (L/mole) | 6,100 ng/mL | 0.07 × 10^6 (L/mole) | 1.1 × 10^6 (L/mole)
N=C(N)Nc1ccc(CCNC(=O)[C@@H]2CCCN2C(=O)[C@@H]2NCC[C@@H]3CCCC[C@@H]32)cc1 [Example 39, D-1-Piq-Pro-p-NHCH2 CH2 C6 H4 NHC(NH)NH2.2HCl] | 78,600 ng/mL | < 0.001 × 10^6 (L/mole) | 5,300 ng/mL | – | < 0.001 × 10^6 (L/mole) | 69,200 ng/mL | < 0.02 × 10^6 (L/mole) | 0.12 × 10^6 (L/mole)
N=C(N)Nc1cccc(CNC(=O)[C@@H]2CCCN2C(=O)[C@@H]2NCC[C@@H]3CCCC[C@@H]32)c1 [Example 40, D-1-Piq-Pro-m-NHCH2 C6 H4 NHC(NH)NH2.2HCl] | > 91,000 ng/mL | < 0.001 × 10^6 (L/mole) | 35,100 ng/mL | – | < 0.001 × 10^6 (L/mole) | > 91,000 ng/mL | 0.01 × 10^6 (L/mole) | 0.03 × 10^6 (L/mole)
N=C(N)Nc1cccc(CCNC(=O)[C@@H]2CCCN2C(=O)[C@@H]2NCC[C@@H]3CCCC[C@@H]32)c1 [Example 41, D-1-Piq-Pro-m-NHCH2 CH2 C6 H4 NHC(NH)NH2.2HCl] | > 91,000 ng/mL | < 0.001 × 10^6 (L/mole) | 82,200 ng/mL | – | < 0.001 × 10^6 (L/mole) | > 91,000 ng/mL | < 0.001 × 10^6 (L/mole) | 0.01 × 10^6 (L/mole)
